Test results reported in patent US20070208087A1, “Compounds, compositions and methods for the treatment of inflammatory diseases” (priority 2001, published 2007).
Where “and” joins values, the source holds several entries; their conditions need not be identical. Identical values can stand only once. Like-named read-outs stand apart in the source and are kept apart here.

Assays:
Assay type in all cases: cell-based
[1] = test system: Microglial cells; test: Dose response inhibition of NO release from microglia, 0.5-500 μM (Example 9); settings: for inhibition at 0.5 µM / inhibition at 1 µM / inhibition at 100 µM / inhibition at 250 µM / inhibition at 500 µM / μM NO release / μM NO release (No LPS average subtracted) / % inhibition: 48 hours; for μM NO release / μM NO release (No LPS average subtracted): 3 replicates
Summary of the method: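 Cells seeded at 1×10^5 cells/ml and, after 48 h, stimulated with 10 ng/ml IFNγ plus 10 μg/ml LPS together with test compounds or L-NAME at 0.5–500 μM. NO release measured by Griess reaction after 48 h.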

[2] = test system: TNF-α release from microglia; test: TNF-α release from LPS/IFNγ stimulated microglia, TNF-α ELISA (Example 11); settings: 50 uM compound, TNF-α release, 10 ug LPS and 10 ng IFNγ, 24 hours
Summary of the method: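 Microglia pretreated 1 h with 50 μM bis-/tris-dihydroxyaryl compound, then stimulated with 10 μg/ml LPS + 10 ng/ml IFNγ for 24 h. Medium sampled, stored at −80°, diluted 1:50 and TNF-α measured by ELISA.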

[3] = test system: microglia; test: Ranking of NO release inhibition (Example 12); settings: Microglia, ranking table
Excerpt: The bis- and tris-dihydroxyaryl compounds were ranked in order of effectiveness for the inhibition of NO release as set out in Table 8.

[4] = test system: EOC 13.31 microglia cells; test: Inhibition of NO release from microglia following 24 hours pretreatment (Example 10); settings: for inhibition at 50 µM: Microglia
Summary of the method: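 Confluent EOC 13.31 cells pretreated 24 hours with 50 μM compound (from 10 mM DMSO stock), then stimulated with 10 μg/ml LPS plus 10 ng/ml IFNγ without media change. After a further 48 hours, NO release was measured by Griess Reaction.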

## Oc1ccc(CNCc2ccc(O)c(O)c2)cc1O [Compound 73, bis(3,4-dihydroxybenzyl)amine]
[1]; Microglia, 48 h, dose 0.5 μM, NO release, LPS/IFNγ, read-out: Avg % Inhibition
  inhibition at 0.5 µM: 12.7%
[1]; Microglia, 48 h, dose 0.5 μM, individual replicates, NO release, LPS/IFNγ, read-out: % inhibition
  inhibition at 0.5 µM: 15.5%
[1]; Microglia, 48 h, dose 1 μM, NO release, LPS/IFNγ, read-out: Avg % Inhibition
  inhibition at 1 µM: 16.5%
[1]; Microglia, 48 h, dose 1 μM, individual replicates, NO release, LPS/IFNγ, read-out: % inhibition
  inhibition at 1 µM: 17.7%
[1]; Microglia, 48 h, dose 5 μM, NO release, LPS/IFNγ
  inhibition at 5 µM: 1.5%
[1]; Microglia, 48 h, dose 10 μM, NO release, LPS/IFNγ
  inhibition at 10 µM: 1.75%
[1]; Microglia, 48 h, dose 25 μM, NO release, LPS/IFNγ
  inhibition at 25 µM: 0.75%
[1]; Microglia, 48 h, dose 50 μM, NO release, LPS/IFNγ
  inhibition at 50 µM: 0.25%
[1]; Microglia, 48 h, dose 100 μM, NO release, LPS/IFNγ, read-out: Avg % Inhibition
  inhibition at 100 µM: 33%
[1]; Microglia, 48 h, dose 100 μM, individual replicates, NO release, LPS/IFNγ, read-out: % inhibition
  inhibition at 100 µM: 31.2%
[1]; Microglia, 48 h, dose 250 μM, NO release, LPS/IFNγ, read-out: Avg % Inhibition
  inhibition at 250 µM: 45.3%
[1]; Microglia, 48 h, dose 250 μM, individual replicates, NO release, LPS/IFNγ, read-out: % inhibition
  inhibition at 250 µM: 46.7%
[1]; Microglia, 48 h, dose 500 μM, NO release, LPS/IFNγ, read-out: Avg % Inhibition
  inhibition at 500 µM: 72.3%
[1]; Microglia, 48 h, dose 500 μM, individual replicates, NO release, LPS/IFNγ, read-out: % inhibition
  inhibition at 500 µM: 72.6%
[1]; Microglia, 48 h, highest concentration tested (500 μM), read-out: inhibited NO release by
  inhibition at 500 µM: 72%
[1]; dose 0.5 μM, LPS/IFNγ
  μM NO release: 17.361 µM and 18.194 µM and 18.056 µM
  μM NO release (No LPS average subtracted): 15.66 µM and 16.49 µM and 16.36 µM
[1]; dose 0.5 μM, individual replicates, NO release, LPS/IFNγ
  % inhibition: 10.99% and 11.74%
[1]; dose 1 μM, LPS/IFNγ
  μM NO release: 16.944 µM and 16.806 µM and 17.778 µM
  μM NO release (No LPS average subtracted): 15.25 µM and 15.11 µM and 16.08 µM
[1]; dose 1 μM, individual replicates, NO release, LPS/IFNγ
  % inhibition: 18.49% and 13.25%
[1]; dose 5 μM, LPS/IFNγ
  μM NO release: 20.000 µM and 19.583 µM and 20.278 µM
  μM NO release (No LPS average subtracted): 18.30 µM and 17.88 µM and 18.58 µM
[1]; dose 5 μM, individual replicates, NO release, LPS/IFNγ
  % inhibition: 1.25% and 3.50% and −0.25%
[1]; dose 10 μM, LPS/IFNγ
  μM NO release: 18.889 μM and 20.417 μM (2×)
  μM NO release (No LPS average subtracted): 17.19 μM and 18.72 μM (2×)
[1]; dose 10 μM, individual replicates, NO release, LPS/IFNγ
  % inhibition: 7.24% and −1.00% (2×)
[1]; dose 25 μM, LPS/IFNγ
  μM NO release: 19.167 µM and 20.139 µM and 20.972 µM
  μM NO release (No LPS average subtracted): 17.47 µM and 18.44 µM and 19.27 µM
[1]; dose 25 μM, individual replicates, NO release, LPS/IFNγ
  % inhibition: 5.75% and 0.50% and −4.00%
[1]; dose 50 μM, LPS/IFNγ
  μM NO release: 19.444 µM and 19.861 µM and 21.250 µM
  μM NO release (No LPS average subtracted): 17.74 µM and 18.16 µM and 19.55 µM
[1]; dose 50 μM, individual replicates, NO release, LPS/IFNγ
  % inhibition: 4.25% and 2.00% and −5.50%
[1]; dose 100 μM, LPS/IFNγ
  μM NO release: 14.444 µM and 13.056 µM and 14.861 µM
  μM NO release (No LPS average subtracted): 12.74 µM and 11.36 µM and 13.16 µM
[1]; dose 100 μM, individual replicates, NO release, LPS/IFNγ
  % inhibition: 38.72% and 28.98%
[1]; dose 250 μM, LPS/IFNγ
  μM NO release: 11.569 µM and 10.904 µM and 13.056 µM
  μM NO release (No LPS average subtracted): 9.87 µM and 9.20 µM and 11.36 µM
[1]; dose 250 μM, individual replicates, NO release, LPS/IFNγ
  % inhibition: 50.33% and 38.72%
[1]; dose 500 μM, LPS/IFNγ
  μM NO release: 6.782 µM and 6.516 µM and 7.181 µM
  μM NO release (No LPS average subtracted): 5.08 µM and 4.82 µM and 5.48 µM
[1]; dose 500 μM, individual replicates, NO release, LPS/IFNγ
  % inhibition: 74.01% and 70.42%
[2]; individual replicates, 50 µM
  % inhibition: −51.44% and −31.47% and −54.79%
[2]; Microglia, 24 h, read-out: Avg % Inhibition
  inhibition at 50 µM: -45.9%
[3]
  inhibition at 50 µM: 2%
[4]; 50 uM pretreatment 24 hours, then LPS/IFNγ 48 hours, single replicates
  μM NO release: 0.000 µM
[4]; 50 uM pretreatment 24 hours, then LPS/IFNγ 48 hours, read-out: Avg % Inhibition
  inhibition at 50 µM: 100%
[4]; 50 uM pretreatment 24 hours, then LPS/IFNγ 48 hours, single replicates, read-out: % inhibition
  inhibition at 50 µM: 100%
[4]; 50 μM pretreatment, read-out: inhibition of NO release following pretreatment
  inhibition at 50 µM: > 75%
